Article PMC7023430, “4-Aminobenzoic Acid Derivatives: Converting Folate Precursor to Antimicrobial and Cytotoxic Agents” (Biomolecules, 2019)
In brackets after ≈: the same amount, converted by molar mass. Read-outs that look alike come from different tables or passages of the source.

Key:
eight fungal strains = assay: Antifungal activity; assay type: cell-based; details: statement over the fungal panel; time not stated
Experimental: (§1) The antifungal properties were evaluated against five yeast strains, namely: Candida albicans ATCC 44859, Candida tropicalis 156, Candida krusei […], Candida glabrata 20/I, Trichosporon […] 1188 and three strains of filamentous fungi: Aspergillus fumigatus 231, Lichtheimia corymbifera 272, and Trichophyton interdigitale 445. A microdilution broth method was performed according to EUCAST II, III instructions with slight modifications. Briefly, tested compounds were dissolved in DMSO and diluted in a twofold manner with RPMI-1640 medium with L-glutamine, supplemented with 2% glucose (w/v) and buffered to pH 7.0 with 3 morpholinopropane-1-sulfonic acid (all components were purchased from Sigma-Aldrich, USA). […] Positive controls consisted of test microbe solely, while negative controls consisted of medium and DMSO. Internal quality control was included too. Visual inspection was used for MIC endpoints evaluation. The experiments were conducted in duplicates. For the results to be valid, the difference in MIC determined from two parallel measurements must not be greater than one step on the dilution scale. PABA and triazole antimycotic drug fluconazole were involved as the reference compounds.

[1] = system: ESBL-positive Klebsiella pneumoniae J 14368/08
[2] = system: Klebsiella pneumoniae D 11750/08
[3] = system: Lichtheimia corymbifera 272; assay: Antifungal microdilution broth method, L. corymbifera; assay type: cell-based
Experimental: as §1

[4] = system: Mycobacterium avium 330/88; assay: Antimycobacterial micromethod in Šula's medium, M. avium; assay type: cell-based
[5] = system: Escherichia coli ATCC 25922, CCM 3954; assay: Antibacterial microdilution broth method, E. coli; assay type: cell-based; details: Escherichia coli
[6] = system: Enterococcus faecalis ATCC 29212, CCM 4224; assay: Antibacterial microdilution broth method, E. faecalis; assay type: cell-based; details: Enterococcus faecalis
[7] = system: E. coli, Listeria monocytogenes and Salmonella enteritidis; parameters: method as in PMID 7730199; details: strains distinct from this study; cited from earlier work
[8] = system: methicillin-resistant Staphylococcus aureus ATCC 43300, CCM 4750 (MRSA); assay: Antibacterial microdilution broth method, MRSA; assay type: cell-based; details: Staphylococcus aureus
[9] = system: Mycobacterium kansasii 235/80; assay: Antimycobacterial micromethod in Šula's medium, M. kansasii 235/80; assay type: cell-based
[10] = system: Staphylococcus epidermidis H 6966/08; assay: Antibacterial microdilution broth method, S. epidermidis; assay type: cell-based; details: Staphylococcus epidermidis, H6966/08, S. epidermidis
[11] = system: Candida albicans ATCC 44859; assay: Antifungal microdilution broth method, C. albicans; assay type: cell-based
Experimental: as §1

[12] = system: Pseudomonas aeruginosa ATCC 27853, CCM 3955; assay: Antibacterial microdilution broth method, P. aeruginosa; assay type: cell-based; details: Pseudomonas aeruginosa, P. aeruginosa
[13] = system: Trichophyton interdigitale 445; assay: Antifungal microdilution broth method, T. interdigitale; assay type: cell-based
Experimental: as §1

phytopathogenic fungi = system: phytopathogenic fungi; parameters: method as in PMID 29283262; details: read-out: IC50 of PABA, phytopathogenic fungi; cited from earlier work
[14] = system: four Gram-positive and four Gram-negative strains; assay: Antibacterial activity; assay type: cell-based; details: statement over the bacterial panel; time not stated; read-out: MIC, antibacterial activity
[15] = system: Mycobacterium tuberculosis H37Rv (331/88); assay: Antimycobacterial micromethod in Šula's medium, M. tuberculosis; assay type: cell-based
[16] = system: Aspergillus fumigatus 231; assay: Antifungal microdilution broth method, A. fumigatus; assay type: cell-based
Experimental: as §1

Candida glabrata 20/I = assay: Antifungal microdilution broth method, C. glabrata; assay type: cell-based; details: Nakaseomyces glabratus
Experimental: as §1

[17] = system: Staphylococcus aureus ATCC 29213, CCM 4223; assay: Antibacterial microdilution broth method, S. aureus; assay type: cell-based
Candida tropicalis 156 = assay: Antifungal microdilution broth method, C. tropicalis; assay type: cell-based
Experimental: as §1

Candida krusei E28 = assay: Antifungal microdilution broth method, C. krusei; assay type: cell-based; details: Pichia kudriavzevii
Experimental: as §1

[18] = system: M. kansasii 6509/96 (clinical isolate); assay: Antimycobacterial micromethod in Šula's medium, M. kansasii 6509/96; assay type: cell-based; details: Mycobacterium kansasii
Trichosporon asahii 1188 = assay: Antifungal microdilution broth method, T. asahii; assay type: cell-based
Experimental: as §1

What does the source list for `Nc1ccc(C(=O)O)cc1` [PABA 1, 4-aminobenzoic acid]?
MIC (eight fungal strains): > 500 µM; MIC KP-E 24 h ([1]; 24 h): >500 µM; MIC KP-E 48 h ([1]; 48 h): >500 µM; MIC KP 24 h ([2]; 24 h): >500 µM; MIC KP 48 h ([2]; 48 h): >500 µM; MIC ([3]; 24 h, read-out: MIC LC 24 h): > 500 µM; MIC ([3]; 48 h, read-out: MIC LC 48 h): > 500 µM; MIC ([4]; 330/88, 336 h, 14 days incubation at 37 °C, read-out: MIC M. avium 330/88 14 d): > 1000 µM; MIC ([4]; 330/88, 504 h, 21 days incubation at 37 °C, read-out: MIC M. avium 330/88 21 d): > 1000 µM; MIC ([5]; 24 h incubation, read-out: MIC EC 24 h): > 500 µM; MIC ([5]; 48 h incubation, read-out: MIC EC 48 h): > 500 µM; MIC ([6]; 24 h incubation, read-out: MIC EF 24 h): > 500 µM; MIC ([6]; 48 h incubation, read-out: MIC EF 48 h): > 500 µM; MIC of PABA [7]: 9000 to 24000 µM; MIC ([8]; 24 h incubation, read-out: MIC MRSA 24 h): > 500 µM; MIC ([8]; 48 h incubation, read-out: MIC MRSA 48 h): > 500 µM; MIC ([9]; 235/80, 168 h, 7 days incubation at 37 °C, read-out: MIC M. kansasii 235/80 7 d): 1000 µM (≈ 137 µg/mL); MIC ([9]; 235/80, 336 h, 14 days incubation at 37 °C, read-out: MIC M. kansasii 235/80 14 d): > 1000 µM; MIC ([9]; 235/80, 504 h, 21 days incubation at 37 °C, read-out: MIC M. kansasii 235/80 21 d): > 1000 µM; MIC ([10]; 24 h incubation, read-out: MIC SE 24 h): > 500 µM; MIC ([10]; 48 h incubation, read-out: MIC SE 48 h): > 500 µM; MIC ([11]; ATCC44859, 24 h, read-out: MIC CA 24 h): > 500 µM; MIC ([11]; ATCC44859, 48 h, read-out: MIC CA 48 h): > 500 µM; MIC ([12]; 24 h incubation, read-out: MIC PA 24 h): > 500 µM; MIC ([12]; 48 h incubation, read-out: MIC PA 48 h): > 500 µM; MIC ([13]; 72 h, read-out: MIC TI 72 h): > 500 µM; MIC ([13]; 120 h, read-out: MIC TI 120 h): > 500 µM; IC50 (phytopathogenic fungi): 1000 to 3000 µM; MIC [14]: > 500 µM; MIC ([15]; 336 h, 14 days incubation at 37 °C, read-out: MIC Mtb. 331/88 14 d): > 1000 µM; MIC ([15]; 504 h, 21 days incubation at 37 °C, read-out: MIC Mtb. 331/88 21 d): > 1000 µM; MIC ([16]; 24 h, read-out: MIC AF 24 h): > 500 µM; MIC ([16]; 48 h, read-out: MIC AF 48 h): > 500 µM; MIC (Candida glabrata 20/I; 24 h, read-out: MIC CG 24 h): > 500 µM; MIC (Candida glabrata 20/I; 48 h, read-out: MIC CG 48 h): > 500 µM; MIC ([17]; 24 h incubation, read-out: MIC SA 24 h): > 500 µM; MIC ([17]; 48 h incubation, read-out: MIC SA 48 h): > 500 µM; MIC (Candida tropicalis 156; 24 h, read-out: MIC CT 24 h): > 500 µM; MIC (Candida tropicalis 156; 48 h, read-out: MIC CT 48 h): > 500 µM; MIC (Candida krusei E28; 24 h, read-out: MIC CK 24 h): > 500 µM; MIC (Candida krusei E28; 48 h, read-out: MIC CK 48 h): > 500 µM; MIC ([18]; 168 h, 7 days incubation at 37 °C, read-out: MIC M. kansasii 6509/96 7 d): 1000 µM (≈ 137 µg/mL); MIC ([18]; 336 h, 14 days incubation at 37 °C, read-out: MIC M. kansasii 6509/96 14 d): 1000 µM (≈ 137 µg/mL); MIC ([18]; 504 h, 21 days incubation at 37 °C, read-out: MIC M. kansasii 6509/96 21 d): 1000 µM (≈ 137 µg/mL); MIC (Trichosporon asahii 1188; 24 h, read-out: MIC TA 24 h): > 500 µM; MIC (Trichosporon asahii 1188; 48 h, read-out: MIC TA 48 h): > 500 µM
